Assay results from the NIST ThermoML archive (doi:10.1016/j.jct.2015.03.022).
Numbers after ± are expanded uncertainties.

settings: Crystal; DTA

| Compound | Normal melting temperature [°C] |
| --- | --- |
| [Br-].[Li+] [lithium bromide] | 551 ± 0.6 |
| [F-].[Li+] [lithium fluoride] | 844 ± 0.6 |
| [Ag][I] [silver iodide] | 559 ± 0.6 |
